Twelve compounds from patent publication US20230391772A1, “METHODS AND COMPOSITIONS FOR TARGETED PROTEIN DEGRADATION” (Ranok Therapeutics (Hangzhou) Co. Ltd., priority 2020, published 2023) can be followed below.

In experiment [1] the target is T1, HSP90a protein (Homo sapiens, UniProt P07900).
T1 construct: purchased BPS Bioscience 50298
Put plainly: HSP90α-binding fluorescent polarization (FP) assay, BODIPY-labeled RNK04010 probe. Conditions: FP competition with RNK04010 (BODIPY-labeled), 5 nM, 300 min at 25° C. Put shortly: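 Compounds (20 μM down to 5.2 nM, 2.5-fold steps) compete with a 5 nM fluorescent tracer for N-terminal HSP90a, measured by fluorescence polarization. With FITC-geldanamycin, plates sit 120 min at 25 °C. With BODIPY-RNK04010, they sit 300 min at 25 °C.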

Experiment [2] relates to NCI-H358 human non-small cell lung cancer. Briefly: NCI-H358 CCK-8 proliferation assay. Format: cell-based. Conditions: NCI-H358 cells, 72 hr. Here is the method:
The following cancer cell lines were employed: BT-474 human breast carcinoma (ATCC, #HTB-20); MIA PaCa-2 human pancreatic carcinoma [2 copies KRAS(G12C)](ATCC, #CRL-1420); NCI-H23 human non-small cell lung cancer [1 copy KRAS(G12C)](ATCC, #CRL-5800); NCI-H358 human non-small cell lung cancer [1 copy KRAS(G12C)](ATCC, #CRL-5807); LU65A human lung carcinoma (Pharmaron, Beijing, China). Cell lines were cultured essentially according to ATCC and Pharmaron recommendations.
Cancer Cell Line Proliferation (CCK-8) Assays
3-fold serial dilutions of each test compound were prepared ranging from 20 μM to 1.02 nM.
% Inhibition=100−(D−B)/(S−B)*100%. • S: Absorbance of cells treated with DMSO • D: Absorbance of compound-treated cells • B: Absorbance of medium with DMSO without cells
A general note: Formazan colour is commonly taken as a measure of viable cells.

For `CCC(=O)N1CCN(c2nc(NCCC(=O)NCc3ccc(-n4c(O)nnc4-c4cc(CC)c(O)cc4O)cc3)nc3c2CCN(c2cc(O)cc4ccccc24)C3)CC1` [Compound 37, N-(4-(3-(5-ethyl-2,4-dihydroxyphenyl)-5-hydroxy-4H-1,2,4-triazol-4-yl)benzyl)-3-((7-(3-hydroxynaphthalen-1-yl)-4-(4-propionylpiperazin-1-yl)-5,6,7,8-tetrahydropyrido[3,4-d]pyrimidin-2-yl)amino)propanamide, trifluoroacetic acid], the IC50 (commonly the midpoint of a concentration-inhibition curve) in experiment [1] was 0.1 to 1 µM. For the same compound, the EC50 (in general, the concentration at which the effect is half-maximal) in experiment [2] was greater than 1 µM.
In the case of `CCC(=O)N1CCN(c2nc(NCCC(=O)N3CCC(Cc4ccc(-n5c(O)nnc5-c5cc(C(C)C)c(O)cc5O)cc4)CC3)nc3c2CCN(c2cc(O)cc4ccccc24)C3)CC1` [Compound 38, 1-(4-(4-(3-(2,4-dihydroxy-5-isopropylphenyl)-5-hydroxy-4H-1,2,4-triazol-4-yl)benzyl)piperidin-1-yl)-3-((7-(3-hydroxynaphthalen-1-yl)-4-(4-propionylpiperazin-1-yl)-5,6,7,8-tetrahydropyrido[3,4-d]pyrimidin-2-yl)amino)propan-1-one, trifluoroacetic acid], the IC50 in experiment [1] lay in the range of 0.1 to 1 µM. Also, the EC50 in experiment [2] was greater than 1 µM.
For `C=CC(=O)N1CCN(c2nc(NCCC(=O)NCc3ccc(-n4c(O)nnc4-c4cc(CC)c(O)cc4O)cc3C(F)(F)F)nc3c2CCN(c2cc(O)cc4ccccc24)C3)CC1` [Compound 39, 3-((4-(4-acryloylpiperazin-1-yl)-7-(3-hydroxynaphthalen-1-yl)-5,6,7,8-tetrahydropyrido[3,4-d]pyrimidin-2-yl)amino)-N-(4-(3-(5-ethyl-2,4-dihydroxyphenyl)-5-hydroxy-4H-1,2,4-triazol-4-yl)-2-(trifluoromethyl)benzyl)propanamide, trifluoroacetic acid] the same measures were greater than 1 µM and greater than 1 µM.
For the compound `C=CC(=O)N1CCN(c2nc(NCCC(=O)NCc3ccc(-n4c(O)nnc4-c4cc(CC)c(O)cc4O)cc3)nc3c2CCN(c2cc(O)cc4ccccc24)C3)CC1` [Compound 40, 3-((4-(4-acryloylpiperazin-1-yl)-7-(3-hydroxynaphthalen-1-yl)-5,6,7,8-tetrahydropyrido[3,4-d]pyrimidin-2-yl)amino)-N-(4-(3-(5-ethyl-2,4-dihydroxyphenyl)-5-hydroxy-4H-1,2,4-triazol-4-yl)benzyl)propanamide, trifluoroacetic acid], the IC50 in experiment [1] was 0.1 to 1 µM. In experiment [2], this compound showed a half-maximal effective concentration (EC50) greater than 1 µM.
`C=CC(=O)N1CCN(c2nc(NCCC(=O)NCc3ccc(-n4c(O)nnc4-c4cc(CC)c(O)cc4O)cc3F)nc3c2CCN(c2cc(O)cc4ccccc24)C3)CC1` [Compound 41, 3-((4-(4-acryloylpiperazin-1-yl)-7-(3-hydroxynaphthalen-1-yl)-5,6,7,8-tetrahydropyrido[3,4-d]pyrimidin-2-yl)amino)-N-(4-(3-(5-ethyl-2,4-dihydroxyphenyl)-5-hydroxy-4H-1,2,4-triazol-4-yl)-2-fluorobenzyl)propanamide, trifluoroacetic acid] gave an IC50 in experiment [1] of 0.1 to 1 µM. Moreover, the concentration for a half-maximal effect (EC50) in experiment [2] was greater than 1 µM.
For `CC(=O)N1CCN(c2nc(NCCC(=O)NCc3ccc(-n4c(O)nnc4-c4cc(C(C)C)c(O)cc4O)cc3C(F)(F)F)nc3c2CCN(c2cc(O)cc4ccccc24)C3)CC1` [Compound 42, 3-((4-(4-acetylpiperazin-1-yl)-7-(3-hydroxynaphthalen-1-yl)-5,6,7,8-tetrahydropyrido[3,4-d]pyrimidin-2-yl)amino)-N-(4-(3-(2,4-dihydroxy-5-isopropylphenyl)-5-hydroxy-4H-1,2,4-triazol-4-yl)-2-(trifluoromethyl)benzyl)propanamide, trifluoroacetic acid] the same measures were 0.1 to 1 µM and greater than 1 µM.
In experiment [1], `CCc1cc(-c2nnc(O)n2-c2ccc(CNC(=O)CCNc3nc4c(c(N5CCN(C(C)=O)CC5)n3)CCN(c3cc(O)cc5ccccc35)C4)c(F)c2)c(O)cc1O` [Compound 43, 3-((4-(4-acetylpiperazin-1-yl)-7-(3-hydroxynaphthalen-1-yl)-5,6,7,8-tetrahydropyrido[3,4-d]pyrimidin-2-yl)amino)-N-(4-(3-(5-ethyl-2,4-dihydroxyphenyl)-5-hydroxy-4H-1,2,4-triazol-4-yl)-2-fluorobenzyl)propanamide] returned an IC50 greater than 1 µM. This compound showed an EC50 in experiment [2] greater than 1 µM.
In experiment [1], `CC(=O)N1CCN(c2nc(NCCC(=O)NCc3ccc(-n4c(O)nnc4-c4cc(C)c(O)cc4O)cc3)nc3c2CCN(c2cc(O)cc4ccccc24)C3)CC1` [Compound 44, 3-((4-(4-acetylpiperazin-1-yl)-7-(3-hydroxynaphthalen-1-yl)-5,6,7,8-tetrahydropyrido[3,4-d]pyrimidin-2-yl)amino)-N-(4-(3-(2,4-dihydroxy-5-methylphenyl)-5-hydroxy-4H-1,2,4-triazol-4-yl)benzyl)propanamide, trifluoroacetic acid] yielded an IC50 greater than 1 µM. Moreover, the EC50 in experiment [2] is greater than 1 µM.
Regarding `CCC(=O)N1CCN(c2nc(NCCC(=O)NCc3ccc(-n4c(O)nnc4-c4cc(CC)c(O)cc4O)cc3C(F)(F)F)nc3c2CCN(c2cc(O)cc4ccccc24)C3)CC1` [Compound 45, N-(4-(3-(5-ethyl-2,4-dihydroxyphenyl)-5-hydroxy-4H-1,2,4-triazol-4-yl)-2-(trifluoromethyl)benzyl)-3-((7-(3-hydroxynaphthalen-1-yl)-4-(4-propionylpiperazin-1-yl)-5,6,7,8-tetrahydropyrido[3,4-d]pyrimidin-2-yl)amino)propanamide, trifluoroacetic acid], the concentration for half-maximal inhibition (IC50) in experiment [1] was greater than 1 µM. In experiment [2], this compound yielded a half-maximal effective concentration (EC50) greater than 1 µM.
The compound `CCC(=O)N1CCN(c2nc(NCCC(=O)NCc3ccc(-n4c(O)nnc4-c4cc(C(C)C)c(O)cc4O)cc3C(F)(F)F)nc3c2CCN(c2cc(O)cc4ccccc24)C3)CC1` [Compound 46, N-(4-(3-(2,4-dihydroxy-5-isopropylphenyl)-5-hydroxy-4H-1,2,4-triazol-4-yl)-2-(trifluoromethyl)benzyl)-3-((7-(3-hydroxynaphthalen-1-yl)-4-(4-propionylpiperazin-1-yl)-5,6,7,8-tetrahydropyrido[3,4-d]pyrimidin-2-yl)amino)propenamide] had an IC50 in experiment [1] of 0.1 to 1 µM. In experiment [2], this compound displayed an EC50 greater than 1 µM.
The compound `C=CC(=O)N1CCN(c2nc(NCCC(=O)NCc3ccc(-n4c(O)nnc4-c4cc(C(C)C)c(O)cc4O)cc3F)nc3c2CCN(c2cc(O)cc4ccccc24)C3)CC1` [Compound 47, 3-((4-(4-acryloylpiperazin-1-yl)-7-(3-hydroxynaphthalen-1-yl)-5,6,7,8-tetrahydropyrido[3,4-d]pyrimidin-2-yl)amino)-N-(4-(3-(2,4-dihydroxy-5-isopropylphenyl)-5-hydroxy-4H-1,2,4-triazol-4-yl)-2-fluorobenzyl)propenamide] returned an IC50 in experiment [1] of 0.1 to 1 µM. In experiment [2], this compound displayed an EC50 greater than 1 µM.
Turning to `CCc1cc(-c2nnc(O)n2-c2ccc(CNC(=O)CCNc3nc4c(c(N5CCN(C(C)=O)CC5)n3)CCN(c3cc(O)cc5ccccc35)C4)cc2)c(O)cc1O` [Compound 48, 3-((4-(4-acetylpiperazin-1-yl)-7-(3-hydroxynaphthalen-1-yl)-5,6,7,8-tetrahydropyrido[3,4-d]pyrimidin-2-yl)amino)-N-(4-(3-(5-ethyl-2,4-dihydroxyphenyl)-5-hydroxy-4H-1,2,4-triazol-4-yl)benzyl)propanamide, trifluoroacetic acid], the IC50 in experiment [1] was in the range of 0.1 to 1 µM. Further, the EC50 in experiment [2] was greater than 1 µM.
